Source: ChEMBL document CHEMBL6078677, “Discovery and optimization of tetrahydroacridine derivatives as a novel class of antibiotics against multidrug-resistant Gram-positive pathogens by targeting type I signal peptidase and disrupting bacterial membrane” (Eur J Med Chem, 2025)
≈ marks a conversion by molar mass, not a printed value.

The compounds below were run on Staphylococcus aureus (assay: Antimicrobial activity against Staphylococcus aureus YZSA-15 harboring erythromycin resistance rRNA methylase C and vancomycin resistance locus assessed as inhibition of visible growth of bacteria incubated for 20 hrs by broth microdilution method). Conditions: not given.
Type: functional

SMILES	MIC
CC1(C)S[C@@H]2[C@H](NC(=O)[C@H](N)c3ccccc3)C(=O)N2[C@H]1C(=O)O [AMPICILLIN]	2 µg/mL (≈ 5.72 µM)

These compounds were tested on Enterococcus faecium (assay: Antimicrobial activity against Enterococcus faecium QF31 harboring erythromycin resistance rRNA methylase B and chloramphenicol-florfenicol resistance methylase assessed as inhibition of visible growth of bacteria incubated for 20 hrs by broth microdilution method). Conditions: not given.
Type: functional

SMILES	MIC
CC1(C)C/C(=C\c2ccc(-c3ccc(Cl)c(C(F)(F)F)c3)o2)c2nc3ccccc3c(C(=O)O)c2C1	8 µg/mL (≈ 15.6 µM)
FC(F)(F)c1cc(-c2ccc(/C=C3\CCCc4c3nc3ccccc3c4Cl)o2)ccc1Cl	64 µg/mL (≈ 135 µM)
O=C(O)C1=c2ccccc2=NC2/C(=C/c3cccc(-c4ccc(Cl)c(C(F)(F)F)c4)c3)CCC12 (stereo unspecified)	> 64 µg/mL
O=C(O)c1c2c(nc3ccccc13)/C(=C/c1ccc(-c3ccc(Cl)cc3)o1)CCC2	16 µg/mL (≈ 38.5 µM)
CC1(C)C/C(=C\c2ccc(-c3cccc(Cl)c3Cl)o2)c2nc3ccccc3c(C(=O)O)c2C1	8 µg/mL (≈ 16.7 µM)
O=C(O)c1c2c(nc3ccccc13)/C(=C/c1ccc(-c3cccc(Cl)c3)o1)CCC2	16 µg/mL (≈ 38.5 µM)
CC1C/C(=C\c2ccc(-c3ccc(Cl)cc3)o2)c2nc3ccccc3c(C(=O)O)c2C1 (racemic)	16 µg/mL (≈ 37.2 µM)
COc1ccc(-c2ccc(/C=C3\CC(C)Cc4c3nc3ccccc3c4C(=O)O)o2)cc1 (racemic)	16 µg/mL (≈ 37.6 µM)
CC1(C)S[C@@H]2[C@H](NC(=O)[C@H](N)c3ccccc3)C(=O)N2[C@H]1C(=O)O [AMPICILLIN]	16 µg/mL (≈ 45.8 µM)

Each compound was assayed on Staphylococcus aureus (assay: Antimicrobial activity against Staphylococcus aureus ATCC 29213 assessed as inhibition of visible growth of bacteria incubated for 20 hrs by broth microdilution method). Conditions: not given.
Type: functional

SMILES	MIC
CC1(C)C/C(=C\c2ccc(-c3ccc(Cl)c(C(F)(F)F)c3)o2)c2nc3ccccc3c(C(=O)O)c2C1	32 µg/mL (≈ 62.5 µM)
FC(F)(F)c1cc(-c2ccc(/C=C3\CCCc4c3nc3ccccc3c4Cl)o2)ccc1Cl	> 64 µg/mL
O=C(O)C1=c2ccccc2=NC2/C(=C/c3cccc(-c4ccc(Cl)c(C(F)(F)F)c4)c3)CCC12 (stereo unspecified)	> 64 µg/mL
O=C(O)c1c2c(nc3ccccc13)/C(=C/c1ccc(-c3ccc(Cl)cc3)o1)CCC2	16 µg/mL (≈ 38.5 µM)
CC1(C)C/C(=C\c2ccc(-c3cccc(Cl)c3Cl)o2)c2nc3ccccc3c(C(=O)O)c2C1	16 µg/mL (≈ 33.4 µM)
O=C(O)c1c2c(nc3ccccc13)/C(=C/c1ccc(-c3cccc(Cl)c3)o1)CCC2	16 µg/mL (≈ 38.5 µM)
CC1C/C(=C\c2ccc(-c3ccc(Cl)cc3)o2)c2nc3ccccc3c(C(=O)O)c2C1 (racemic)	8 µg/mL (≈ 18.6 µM)
COc1ccc(-c2ccc(/C=C3\CC(C)Cc4c3nc3ccccc3c4C(=O)O)o2)cc1 (racemic)	> 64 µg/mL
CC1(C)S[C@@H]2[C@H](NC(=O)[C@H](N)c3ccccc3)C(=O)N2[C@H]1C(=O)O [AMPICILLIN]	1 µg/mL (≈ 2.86 µM)

The compounds below were run on Streptococcus pyogenes (assay: Antimicrobial activity against Streptococcus pyogenes DL02 harboring erythromycin-resistance rRNA methylase B assessed as inhibition of visible growth of bacteria incubated for 20 hrs by broth microdilution method). Conditions: not given.
Type: functional

SMILES	MIC
CC1(C)S[C@@H]2[C@H](NC(=O)[C@H](N)c3ccccc3)C(=O)N2[C@H]1C(=O)O [AMPICILLIN]	0.5 µg/mL (≈ 1.43 µM)

These compounds were tested on Pseudomonas aeruginosa (assay: Antimicrobial activity against Pseudomonas aeruginosa PA01 assessed as inhibition of visible growth of bacteria incubated for 20 hrs by broth microdilution method). Conditions: not given.
Type: functional

SMILES	MIC
CC1(C)S[C@@H]2[C@H](NC(=O)[C@H](N)c3ccccc3)C(=O)N2[C@H]1C(=O)O [AMPICILLIN]	> 32 µg/mL

What follows are compounds tested on Streptococcus suis (assay: Antimicrobial activity against Streptococcus suis P1/7 assessed as inhibition of visible growth of bacteria incubated for 20 hrs by broth microdilution method). Conditions: not given.
Type: functional

SMILES	MIC
CC1(C)C/C(=C\c2ccc(-c3ccc(Cl)c(C(F)(F)F)c3)o2)c2nc3ccccc3c(C(=O)O)c2C1	32 µg/mL (≈ 62.5 µM)
FC(F)(F)c1cc(-c2ccc(/C=C3\CCCc4c3nc3ccccc3c4Cl)o2)ccc1Cl	> 64 µg/mL
O=C(O)C1=c2ccccc2=NC2/C(=C/c3cccc(-c4ccc(Cl)c(C(F)(F)F)c4)c3)CCC12 (stereo unspecified)	> 64 µg/mL
O=C(O)c1c2c(nc3ccccc13)/C(=C/c1ccc(-c3ccc(Cl)cc3)o1)CCC2	32 µg/mL (≈ 76.9 µM)
CC1(C)C/C(=C\c2ccc(-c3cccc(Cl)c3Cl)o2)c2nc3ccccc3c(C(=O)O)c2C1	> 64 µg/mL
O=C(O)c1c2c(nc3ccccc13)/C(=C/c1ccc(-c3cccc(Cl)c3)o1)CCC2	16 µg/mL (≈ 38.5 µM)
CC1C/C(=C\c2ccc(-c3ccc(Cl)cc3)o2)c2nc3ccccc3c(C(=O)O)c2C1 (racemic)	32 µg/mL (≈ 74.4 µM)
COc1ccc(-c2ccc(/C=C3\CC(C)Cc4c3nc3ccccc3c4C(=O)O)o2)cc1 (racemic)	32 µg/mL (≈ 75.2 µM)
CC1(C)S[C@@H]2[C@H](NC(=O)[C@H](N)c3ccccc3)C(=O)N2[C@H]1C(=O)O [AMPICILLIN]	≤ 0.5 µg/mL

The compounds below were run on Acinetobacter baumannii (assay: Antimicrobial activity against Acinetobacter baumannii 7979 assessed as inhibition of visible growth of bacteria incubated for 20 hrs by broth microdilution method). Conditions: not given.
Type: functional

SMILES	MIC
CC1(C)S[C@@H]2[C@H](NC(=O)[C@H](N)c3ccccc3)C(=O)N2[C@H]1C(=O)O [AMPICILLIN]	> 32 µg/mL

What follows are compounds tested on Enterococcus faecium (assay: Antimicrobial activity against Enterococcus faecium MC38 harboring erythromycin resistance rRNA methylase B and oxazolidinone-phenicol transferable resistance gene assessed as inhibition of visible growth of bacteria incubated for 20 hrs by broth microdilution method). Conditions: not given.
Type: functional

SMILES	MIC
CC1(C)S[C@@H]2[C@H](NC(=O)[C@H](N)c3ccccc3)C(=O)N2[C@H]1C(=O)O [AMPICILLIN]	32 µg/mL (≈ 91.6 µM)

Each compound was assayed on Enterococcus faecalis (assay: microbe, parasite or virus in culture). Conditions: SF23-1, time 20 hrs.
Type: functional
Description: Antimicrobial activity against Enterococcus faecalis SF23-1 harboring erythromycin-resistance rRNA methylase B, tetracycline efflux protein L and chloramphenicol-florfenicol resistance methylase assessed as inhibition of visible growth of bacteria incubated for 20 hrs by broth microdilution method

SMILES	MIC
CC1(C)C/C(=C\c2ccc(-c3ccc(Cl)c(C(F)(F)F)c3)o2)c2nc3ccccc3c(C(=O)O)c2C1	4 µg/mL (≈ 7.81 µM)
FC(F)(F)c1cc(-c2ccc(/C=C3\CCCc4c3nc3ccccc3c4Cl)o2)ccc1Cl	> 64 µg/mL
O=C(O)C1=c2ccccc2=NC2/C(=C/c3cccc(-c4ccc(Cl)c(C(F)(F)F)c4)c3)CCC12 (stereo unspecified)	> 64 µg/mL
O=C(O)c1c2c(nc3ccccc13)/C(=C/c1ccc(-c3ccc(Cl)cc3)o1)CCC2	> 64 µg/mL
CC1(C)C/C(=C\c2ccc(-c3cccc(Cl)c3Cl)o2)c2nc3ccccc3c(C(=O)O)c2C1	8 µg/mL (≈ 16.7 µM)
O=C(O)c1c2c(nc3ccccc13)/C(=C/c1ccc(-c3cccc(Cl)c3)o1)CCC2	> 64 µg/mL
CC1C/C(=C\c2ccc(-c3ccc(Cl)cc3)o2)c2nc3ccccc3c(C(=O)O)c2C1 (racemic)	> 64 µg/mL
COc1ccc(-c2ccc(/C=C3\CC(C)Cc4c3nc3ccccc3c4C(=O)O)o2)cc1 (racemic)	> 64 µg/mL

What follows are compounds tested on Staphylococcus aureus (assay: Antimicrobial activity against Staphylococcus aureus YZSA-21 harboring erythromycin resistance rRNA methylase C assessed as inhibition of visible growth of bacteria incubated for 20 hrs by broth microdilution method). Conditions: not given.
Type: functional

SMILES	MIC
CC1(C)S[C@@H]2[C@H](NC(=O)[C@H](N)c3ccccc3)C(=O)N2[C@H]1C(=O)O [AMPICILLIN]	1 µg/mL (≈ 2.86 µM)

The compounds below were run on Staphylococcus aureus (assay: Antimicrobial activity against Staphylococcus aureus YZSA-24 harboring erythromycin resistance rRNA methylase C and methicillin resistance gene resistance locus assessed as inhibition of visible growth of bacteria incubated for 20 hrs by broth microdilution method). Conditions: not given.
Type: functional

SMILES	MIC
CC1(C)S[C@@H]2[C@H](NC(=O)[C@H](N)c3ccccc3)C(=O)N2[C@H]1C(=O)O [AMPICILLIN]	> 32 µg/mL

The compounds below were run on Salmonella enteritidis (assay: Antimicrobial activity against Salmonella enteritis S1 assessed as inhibition of visible growth of bacteria incubated for 20 hrs by broth microdilution method). Conditions: Salmonella enterica.
Type: functional, Salmonella enterica subsp. enterica serovar Enteritidis

SMILES	MIC
CC1(C)S[C@@H]2[C@H](NC(=O)[C@H](N)c3ccccc3)C(=O)N2[C@H]1C(=O)O [AMPICILLIN]	32 µg/mL (≈ 91.6 µM)

What follows are compounds tested on Enterococcus faecalis (assay: Antimicrobial activity against Enterococcus faecalis JH2-2 assessed as inhibition of visible growth of bacteria incubated for 20 hrs by broth microdilution method). Conditions: not given.
Type: functional

SMILES	MIC
CC1(C)S[C@@H]2[C@H](NC(=O)[C@H](N)c3ccccc3)C(=O)N2[C@H]1C(=O)O [AMPICILLIN]	16 µg/mL (≈ 45.8 µM)

The compounds below were run on Klebsiella pneumoniae (assay: Antimicrobial activity against Klebsiella pneumoniae 9-1 assessed as inhibition of visible growth of bacteria incubated for 20 hrs by broth microdilution method). Conditions: not given.
Type: functional

SMILES	MIC
CC1(C)S[C@@H]2[C@H](NC(=O)[C@H](N)c3ccccc3)C(=O)N2[C@H]1C(=O)O [AMPICILLIN]	> 32 µg/mL

The compounds below were run on Enterococcus faecalis (assay: Antimicrobial activity against Enterococcus faecalis J2 harboring erythromycin-resistance rRNA methylase B and oxazolidinone phenicol transferable resistance gene assessed as inhibition of visible growth of bacteria incubated for 20 hrs by broth microdilution method). Conditions: not given.
Type: functional

SMILES	MIC
CC1(C)S[C@@H]2[C@H](NC(=O)[C@H](N)c3ccccc3)C(=O)N2[C@H]1C(=O)O [AMPICILLIN]	> 32 µg/mL

What follows are compounds tested on Acinetobacter baumannii (assay: Antimicrobial activity against Acinetobacter baumannii AB11 assessed as inhibition of visible growth of bacteria incubated for 20 hrs by broth microdilution method). Conditions: not given.
Type: functional

SMILES	MIC
CC1(C)S[C@@H]2[C@H](NC(=O)[C@H](N)c3ccccc3)C(=O)N2[C@H]1C(=O)O [AMPICILLIN]	< 0.06 µg/mL

These compounds were tested on Enterococcus faecalis (assay: Antimicrobial activity against Enterococcus faecalis ES01 harboring erythromycin-resistance rRNA methylase B and vanB-type vancomycin-resistance locus assessed as inhibition of visible growth of bacteria incubated for 20 hrs by broth microdilution method). Conditions: not given.
Type: functional

SMILES	MIC
CC1(C)S[C@@H]2[C@H](NC(=O)[C@H](N)c3ccccc3)C(=O)N2[C@H]1C(=O)O [AMPICILLIN]	16 µg/mL (≈ 45.8 µM)

These compounds were tested on Pseudomonas aeruginosa (assay: Antimicrobial activity against Pseudomonas aeruginosa PA14 assessed as inhibition of visible growth of bacteria incubated for 20 hrs by broth microdilution method). Conditions: not given.
Type: functional

SMILES	MIC
CC1(C)S[C@@H]2[C@H](NC(=O)[C@H](N)c3ccccc3)C(=O)N2[C@H]1C(=O)O [AMPICILLIN]	> 32 µg/mL

What follows are compounds tested on Streptococcus agalactiae (assay: Antimicrobial activity against Streptococcus agalactiae DL03 harboring erythromycin-resistance rRNA methylase B assessed as inhibition of visible growth of bacteria incubated for 20 hrs by broth microdilution method). Conditions: not given.
Type: functional

SMILES	MIC
CC1(C)S[C@@H]2[C@H](NC(=O)[C@H](N)c3ccccc3)C(=O)N2[C@H]1C(=O)O [AMPICILLIN]	0.5 µg/mL (≈ 1.43 µM)

What follows are compounds tested on Enterococcus faecium (assay: Antimicrobial activity against Enterococcus faecium HFY01 assessed as inhibition of visible growth of bacteria incubated for 20 hrs by broth microdilution method). Conditions: not given.
Type: functional

SMILES	MIC
CC1(C)S[C@@H]2[C@H](NC(=O)[C@H](N)c3ccccc3)C(=O)N2[C@H]1C(=O)O [AMPICILLIN]	1 µg/mL (≈ 2.86 µM)
